# Laboratory results as given in paper PMC10714400, “Antimicrobial Peptide–Peptoid Hybrids with and without Membrane Disruption” (ACS Infectious Diseases, 2023).
# Where two headings read alike, the source gives them in different places. Where a SMILES comes first, the peptide text is derived from it. [ ]: non-standard residue; d: D form. Nleu = CC(C)CNCC(=O)O; Nlys = NCCCCNCC(=O)O
# Legend:
# [1] = tested on: K. pneumoniae OXA-48; details: […] MH at pH 8.5
# How it was run: (§1)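 Microdilution MIC in MH broth; inocula from overnight LB cultures at 37 °C, about 5 × 10^5 CFU per well. Plates stood ca. 18 h at 37 °C, then MTT (1 mg/mL) was added for 20–30 min at RT, and wells remaining yellow marked inhibition.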
# [2] = tested on: P. aeruginosa PAO1
# How it was run: as §1
# [3] = tested on: A. baumannii ATCC19606
# How it was run: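 MTT added (20–30 min, room temperature); MIC read by eye as lowest concentration inhibiting visible growth (yellow). Polymyxin B positive control from 16 μg/mL.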
# [4] = tested on: S. aureus COL (MRSA)
# How it was run: as §1
# [5] = tested on: ZEM9A (clinical MDR P. aeruginosa isolate); details: […] MH at pH 8.5
# How it was run: as §1
# [6] = tested on: PA14 4.18 (pmrB)
# How it was run: as §1
# [7] = tested on: ZEM-1A (clinical MDR P. aeruginosa isolate)
# How it was run: as §1
# [8] = tested on: PA14 2P4 (pmrB)
# How it was run: as §1
# [9] = tested on: HEK293 cells; assay: Cell viability assay by Alamar blue
# Protocol: The data are represented as the mean value ± SD, n = 3. […] (c) Vesicle leakage assay for a selection of compounds. Lipid vesicles made of EYPG or EYPC were suspended in a buffer (10 mM TRIS, 107 mM NaCl, pH 7.4). After 45 s, the indicated compound was added to reach the desired concentration. After 240 s, 30 μL of 1.2% TritonX-100 was added for full fluorescein release. […] See Supporting Information for the full curves, all of the data, and procedures.
# HEK293 cells were cultured and maintained in DMEM high glucose (Dulbecco’s modified Eagle medium, Sigma Aldrich) medium supplemented with 10% FBS (Sigma Aldrich) and 1% penicillin/streptomycin. A549 cells were cultured and maintained in RPMI-1640 medium (Sigma Aldrich), supplemented with 10% FBS (Sigma Aldrich) and 1% penicillin/streptomycin. The cells were handled and subcultured according to the manufacturer instructions. Cells were incubated in a humidified incubator at 37 °C in the presence of 5% CO2.
# Assays on HEK293, A549 cells were performed as described earlier.[74] […]
# [10] = tested on: P. aeruginosa PA14
# How it was run: as §1
# [11] = tested on: S. aureus Newman; details: […] MH at pH 8.5
# How it was run: as §1
# [12] = tested on: S. maltophilia; details: […] MH at pH 8.5
# How it was run: as §1
# [13] = tested on: B. cenocepacia; details: diluted MH ([…] MH) at pH 8.5 (Table 2 footnote b)
# How it was run: as §1
# [14] = tested on: S. epidermis; details: […] MH at pH 8.5
# How it was run: as §1
# [15] = tested on: human red blood cells (hRBC); assay: Minimum hemolytic concentration (MHC); format: cell-based
# Source text: We also measured minimal hemolysis concentrations (MHC) on human red blood cells by serial 2-fold dilution as an indication of toxicity against eukaryotic cells (Table 1).
# [16] = diluted MH ([…] MH) at pH 8.5 (Table 2 footnote b)
compound,measurement,setting,value
"CC(C)CN(CC(N)=O)C(=O)CN(CC(C)C)C(=O)CN(CC(C)C)C(=O)CN(CCCCN)C(=O)CN(CC(C)C)C(=O)CN(CC(C)C)C(=O)CN(CCCCN)C(=O)CN(CC(C)C)C(=O)CN(CC(C)C)C(=O)CN(CCCCN)C(=O)CNCCCCN [EB11, kkllkllklll] (H-[Nlys][Nlys][Nleu][Nleu][Nlys][Nleu][Nleu][Nlys][Nleu][Nleu][Nleu]-NH2)","MIC K. pneumoniae OXA-48, […] MH at pH 8.5",[1]; CSV,32 ug/mL
same,MIC K. pneumoniae OXA-48,[1]; Table S3,32 µg/mL
same,"MIC P. aeruginosa PAO1, […] MH at pH 7.4","[2]; CSV, […] MH at pH 7.4",8 ug/mL
same,"MIC P. aeruginosa PAO1, full MH at pH 7.4","[2]; CSV, full MH at pH 7.4",>32 ug/mL
same,"MIC P. aeruginosa PAO1, full MH at pH 8.5","[2]; CSV, full MH at pH 8.5",>32 ug/mL
same,Antibacterial activity as a function of NaCl concentration,"[2]; P. aeruginosa PAO1, […] MH at pH 8.5, up to 300 mM NaCl",strongly reduced
same,MIC P. aeruginosa PAO1 […] 7.4,"[2]; Table S2, […] MH, pH 7.4",8 µg/mL
same,MIC P. aeruginosa PAO1 […] 8.5,"[2]; Table S2, […] MH, pH 8.5",4 µg/mL
same,MIC P. aeruginosa PAO1 Full MH 7.4,"[2]; Table S2, full MH, pH 7.4",> 32 µg/mL
same,MIC P. aeruginosa PAO1 Full MH 8.5,"[2]; Table S2, full MH, pH 8.5",> 32 µg/mL
same,"MIC A. baumannii ATCC19606, […] MH at pH 7.4","[3]; CSV, […] MH at pH 7.4",16 ug/mL
same,"MIC A. baumannii ATCC19606, […] MH at pH 8.5","[3]; CSV, […] MH at pH 8.5",16 ug/mL
same,"MIC A. baumannii ATCC19606, full MH at pH 7.4","[3]; CSV, full MH at pH 7.4",>32 ug/mL
same,"MIC A. baumannii ATCC19606, full MH at pH 8.5","[3]; CSV, full MH at pH 8.5",>32 ug/mL
same,MIC A. baumannii ATCC19606 […] 7.4,"[3]; Table S2, […] MH, pH 7.4",16 µg/mL
same,MIC A. baumannii ATCC19606 […] 8.5,"[3]; Table S2, […] MH, pH 8.5",16 µg/mL
same,MIC A. baumannii ATCC19606 Full MH 7.4,"[3]; Table S2, full MH, pH 7.4",> 32 µg/mL
same,MIC A. baumannii ATCC19606 Full MH 8.5,"[3]; Table S2, full MH, pH 8.5",> 32 µg/mL
same,"MIC S. aureus COL (MRSA), […] MH at pH 7.4","[4]; CSV, […] MH at pH 7.4",>32 ug/mL
same,"MIC S. aureus COL (MRSA), […] MH at pH 8.5","[4]; CSV, […] MH at pH 8.5",6 ug/mL
same,"MIC S. aureus COL (MRSA), full MH at pH 7.4","[4]; CSV, full MH at pH 7.4",>32 ug/mL
same,"MIC S. aureus COL (MRSA), full MH at pH 8.5","[4]; CSV, full MH at pH 8.5",>32 ug/mL
same,MIC S. aureus COL (MRSA) […] 7.4,"[4]; Table S2, […] MH, pH 7.4",> 32 µg/mL
same,MIC S. aureus COL (MRSA) […] 8.5,"[4]; Table S2, […] MH, pH 8.5",4 to 8 µg/mL
same,MIC S. aureus COL (MRSA) Full MH 7.4,"[4]; Table S2, full MH, pH 7.4",> 32 µg/mL
same,MIC S. aureus COL (MRSA) Full MH 8.5,"[4]; Table S2, full MH, pH 8.5",> 32 µg/mL
same,MIC S. aureus COL (MRSA) […],"[4]; diluted MH ([…] MH, pH 8.5) per Table 1 footnote b, 16–20 h at 37 °C",>32 µg/mL
same,"MIC P. aeruginosa ZEM9A, […] MH at pH 8.5",[5]; CSV,4 ug/mL
same,MIC P. aeruginosa ZEM9A,[5]; Table S3,4 µg/mL
same,"MIC P. aeruginosa PA14 4.18, […] MH at pH 8.5","[6]; CSV, […] MH at pH 8.5",12 ug/mL
same,MIC P. aeruginosa PA14 4.18,"[6]; Table S3, […] MH at pH 8.5",8 to 16 µg/mL
same,MIC PA14 4.18 (pmrB),[6]; [16],8 to 16 µg/mL
same,"MIC P. aeruginosa ZEM-1A, […] MH at pH 8.5","[7]; CSV, […] MH at pH 8.5",3 ug/mL
same,MIC P. aeruginosa ZEM-1A,"[7]; Table S3, […] MH at pH 8.5",2 to 4 µg/mL
same,MIC ZEM-1A,[7]; [16],2 to 4 µg/mL
same,"MIC P. aeruginosa PA14 2P4, […] MH at pH 8.5","[8]; CSV, […] MH at pH 8.5",12 ug/mL
same,MIC P. aeruginosa PA14 2P4,"[8]; Table S3, […] MH at pH 8.5",8 to 16 µg/mL
same,MIC PA14 2P4 (pmrB),[8]; [16],8 to 16 µg/mL
same,"Toxicity against HEK293 cells, no effect detected up to","[9]; Alamar blue, 24 h",> 200 µM
same,IC50,"[9]; read-out: Toxicity on HEK293 cells, CSV",> 200 µM
same,"MIC P. aeruginosa PA14, […] MH at pH 8.5","[10]; CSV, […] MH at pH 8.5",3 ug/mL
same,MIC P. aeruginosa PA14,"[10]; Table S3, […] MH at pH 8.5, 16-20 hours at 37 °C",2 to 4 µg/mL
same,MIC P. aeruginosa PA14,[10]; [16],2 to 4 µg/mL
same,"MIC S. aureus Newman, […] MH at pH 8.5",[11]; CSV,4 ug/mL
same,MIC S. aureus Newman,[11]; Table S3,4 µg/mL
same,"MIC S. maltophilia, […] MH at pH 8.5",[12]; CSV,4 ug/mL
same,MIC S. maltophilia,[12]; Table S3,4 µg/mL
same,MIC B. cenocepacia,[13],>32 µg/mL
same,"MIC S. epidermis, […] MH at pH 8.5",[14]; CSV,1 ug/mL
same,MIC S. epidermis,[14]; Table S3,1 µg/mL
same,MHC,[15]; CSV,>2000 µg/mL
same,MHC,"[15]; Table S2, hRBC, 10 mM phosphate buffer, 150 mM NaCl, pH 7.4, 25 °C, 4 h",> 2000 µg/mL
same,MHC,"[15]; hRBC, 10 mM phosphate buffer, 150 mM NaCl, pH 7.4, 25 °C, 4 h",>2000 µg/mL
same,Hemolysis,[15]; human red blood cells,none of them showed any measurable hemolysis
